Results: paper PMC4654407 (Bioorganic & medicinal chemistry letters, 2015)
≈ marks a conversion by molar mass, not a printed value.

How the values were obtained:
[1] = target: T1, recombinant purified human sEH (Homo sapiens, UniProt P34913); test: sEH inhibition, kinetic fluorescent assay with CMNPC substrate; format: biochemical
T1 sequence (P34913 1-555): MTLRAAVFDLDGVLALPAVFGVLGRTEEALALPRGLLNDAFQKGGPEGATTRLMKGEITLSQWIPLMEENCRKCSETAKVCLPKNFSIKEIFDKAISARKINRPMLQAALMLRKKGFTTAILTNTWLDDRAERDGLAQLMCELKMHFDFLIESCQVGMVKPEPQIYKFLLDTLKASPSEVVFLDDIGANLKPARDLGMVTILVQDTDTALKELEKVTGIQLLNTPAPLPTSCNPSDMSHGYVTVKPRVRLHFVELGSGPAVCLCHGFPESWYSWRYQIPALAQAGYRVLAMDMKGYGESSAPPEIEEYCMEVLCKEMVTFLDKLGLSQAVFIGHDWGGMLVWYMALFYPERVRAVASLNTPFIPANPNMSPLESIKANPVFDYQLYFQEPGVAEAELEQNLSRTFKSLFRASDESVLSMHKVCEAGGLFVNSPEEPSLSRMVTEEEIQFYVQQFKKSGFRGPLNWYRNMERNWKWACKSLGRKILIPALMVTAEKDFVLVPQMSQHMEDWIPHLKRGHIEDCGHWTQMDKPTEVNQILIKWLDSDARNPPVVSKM

[2] = Solubility in sodium phosphate buffer; format: physicochemical; details: pH 7.4

Cc1cc(CNC(=O)NCC23CC4CC(CC(C4)C2)C3)on1 [3d]
IC50 [1]: 9.9 ± 2.9 nM | solubility [2]: 450 to 475 µM (≈ 137 to 144 µg/mL)

Cc1ccc(-c2cc(CNC(=O)NC34CC5CC(C)(CC(C)(C5)C3)C4)no2)cc1 [4a]
IC50 [1]: 28.8 ± 4.5 nM | solubility [2]: 125 to 150 µM (≈ 49.2 to 59 µg/mL)

O=C(NCc1cc(-c2cccc(F)c2)no1)NCC12CC3CC(CC(C3)C1)C2 [3g]
IC50 [1]: 13.7 ± 3 nM | solubility [2]: 75 to 100 µM (≈ 28.8 to 38.3 µg/mL)

COc1ccc(-c2cc(CNC(=O)NC34CC5CC(C)(CC(C)(C5)C3)C4)no2)cc1 [4b]
IC50 [1]: 18 ± 2.9 nM | solubility [2]: 25 to 50 µM (≈ 10.2 to 20.5 µg/mL)

Cc1cc(CNC(=O)NC23CC4CC(C)(CC(C)(C4)C2)C3)on1 [4d]
IC50 [1]: 111 ± 10.3 nM | fold less potent ([1]; relative to 3d): 10 fold | solubility [2]: 200 to 225 µM (≈ 63.5 to 71.4 µg/mL)

O=C(NCc1cc(-c2ccco2)on1)NCC12CC3CC(CC(C3)C1)C2 [3c]
solubility [2]: 75 to 100 µM (≈ 26.7 to 35.5 µg/mL)

CC(C)c1cc(CNC(=O)NCC23CC4CC(CC(C4)C2)C3)on1 [3f]
solubility [2]: 125 to 150 µM (≈ 41.4 to 49.7 µg/mL)

Cc1ccc(-c2cc(CNC(=O)NCC34CC5CC(CC(C5)C3)C4)no2)cc1 [3a]
solubility [2]: 75 to 100 µM (≈ 28.5 to 38 µg/mL)

COc1ccc(-c2cc(CNC(=O)NCC34CC5CC(CC(C5)C3)C4)no2)cc1 [3b]
solubility [2]: 100 to 125 µM (≈ 39.6 to 49.4 µg/mL)

CC12CC3CC(C)(C1)CC(NC(=O)NCc1cc(-c4ccco4)on1)(C3)C2 [4c]
IC50 [1]: 4.8 ± 0.6 nM | solubility [2]: 75 to 100 µM (≈ 27.7 to 36.9 µg/mL)

CC12CC3CC(C)(C1)CC(NC(=O)NCc1cc(-c4cccc(F)c4)no1)(C3)C2 [4g]
IC50 [1]: 14.2 ± 2.5 nM | solubility [2]: 75 to 100 µM (≈ 29.8 to 39.7 µg/mL)

CC(C)c1cc(C2CCCN2C(=O)NCC23CC4CC(CC(C4)C2)C3)no1 (centres unmarked) [3k]
fold less active than corresponding 1,3-disubstituted urea ([1]; relative to 3f): > 5 fold
